Holding throughout (format): in vivo, human
For one test, the system named is cystic fibrosis. As to the kind of experiment: Inhaled gas / nebulized treatment of patients with cystic fibrosis (Examples IV, IX, XI, XII).
For another test, the system named is ARDS. Briefly: Inhaled gas treatment of patients with ARDS (Examples II, VI, VII, VIII).
The subject of another test is asthma. Briefly: Inhaled gas treatment of patients with asthma (Examples III, X). The settings on record: Example III; child, status asthmaticus, intubated; 20 ppm in nitrogen.

Results on five compounds are retold here after patent US7045152B2, “Treating pulmonary disorders with gaseous agent causing repletion of GSNO” (Duke University, priority 1999, dated 2006).

With `[Na+].[Na+].[O-][N+]([O-])=NO` [Angeli's salt, reference compound], the sputum production entry in the test with cystic fibrosis (Example XI, 100 mM in 3 cc normal saline nebulized Q 6 hours, over two days, after HNO) was “decreases in sputum production”.
As to `CCON=O` [Ethylnitrite], the “GSNO levels in the airway lining fluid” value in the test on cystic fibrosis (human, in vivo) is recorded as “increase”. The blood gases result in the test on cystic fibrosis (human, in vivo) is recorded as “improved”. For the same compound, the pulmonary hemorrhage entry in the test with cystic fibrosis (human, in vivo) is “the hemorrhage stops”. Further, the state of health entry with cystic fibrosis (human, in vivo) was “reverts to their normal state of health”. Further, the PaO2 in the test on ARDS (Example VII, ENO in nitrogen started again (arrow D), from 43) is 49 mm Hg; in the test with ARDS (Example VII, ENO stopped (arrow C), from 46), 43 mm Hg; in the test on ARDS (Example VII, over the following 12 hours on ENO, progressively less responsive) it was 37 millimeters of mercury; with ARDS (Example VII, person, viral pneumonia progressed to ARDS, initial ENO 40 ppm in nitrogen (arrow A), from 39 on 100% oxygen), 48 mm Hg; in the test on ARDS (Example VIII, person, ARDS, inhaled 10 ppm in nitrogen for three days, from 50) it was 40 mm Hg. Moreover, in the test with ARDS (Example VII, hemodynamically unstable patient, ENO 40 ppm in nitrogen), the blood pressure result was “stabilized”.
In the test with ARDS (Example VI, person, AML, ARDS, intubated, 20 parts per million oxygen, from PO2 40 on 100% oxygen), `CSN=O` [Methylthionitrite] came in with a PaO2 of 70 mm Hg.
Turning to `CC(=O)N[C@@H](CS)C(=O)O` [N-acetylcysteine, reference compound], the PaO2 in the test on ARDS (Example VII, nebulized N-acetylcysteine added to ENO (arrow B), from 37) is on record as 46 mm Hg.
In the case of `COS(=O)N=O` (centres unmarked) [methylnitrososulfinate], in the test with asthma, the airway pressures entry is recorded as “airway pressures decrease”.
